According to patent publication US20260159527A1, “MACROCYCLIC BCL6 DEGRADERS” (DANA-FARBER CANCER INSTITUTE, INC., priority 2022, published 2026):

target: T1, BCL6 (Homo sapiens, UniProt P41182); assay: HiBiT cellular degradation assay (Promega) in Su-DHL-4 cells; format: cell-based; conditions: concentration to reach 50% degradation; endogenous BCL6 tagged with SmBiT in Su-DHL-4 cells; 24 hr of compound treatment; relative to DMSO control
T1 construct: Endogenous BCL6 was tagged with the 11-amino acid SmBiT through CRISPR/Cas9 gene editing; endogenous in cells; host or cells: Su-DHL-4 cells, CRISPR/Cas9 knock-in single cell clone
Procedure: DC50 (concentration to reach 50% degradation) values were determined from a cellular degradation assay (HiBiT, Promega™) in Su-DHL-4 cells (Table 1). Endogenous BCL6 was tagged with the 11-amino acid SmBiT through CRISPR/Cas9 gene editing and single cell clone selection. After 24 hr of compound treatment, cells were lysed and incubated with LgBiT protein to reconstitute intact nanoluciferase. Substrate was then added and relative luciferase units were measured. Degradation levels for each treatment were taken as a percentage compared to the control, 100% DMSO (Prism).

Compared with `C[C@@H]1CN2C[C@H](NCCOc3cc(cc4c3n(C)c(=O)n4CCC(C)(O)CO)Nc3nc2ncc3Cl)C1(F)F` (stereo partly drawn) [Compound 40], `C[C@H]1CN2C[C@@H](NCCOc3cc(cc4c3n(C)c(=O)n4CCC(C)(C)O)Nc3nc2ncc3Cl)C1(F)F` [Compound 35, (1^3R, 1^5S)-1^4,1^4,2^5-Trifluoro-4^1-(3-hydroxy-3-methylbutyl)-1^5,4^3-dimethyl-4^2,4^3-dihydro-4^1H-5-oxa-3,8-diaza-4(6,4)-benzo[d]imidazola-2(2,4)-pyrimidina-1 (1,3)-piperidinacyclooctaphan-4^2-one] is higher in DC50: 3.7 nM for the first, over 400 nM for the second.

Compared with `C[C@@H]1CN2C[C@H](NCCOc3cc(cc4c3n(C)c(=O)n4CCC(C)(C)O)Nc3ccnc2n3)C1(F)F` [Compound 39], `C[C@@H]1CN2C[C@H](NCCOc3cc(cc4c3n(C)c(=O)n4CCC(C)(C)O)Nc3nc2ncc3Cl)C1(F)F` [Compound 14, (1^3S,1^5R)-2^5-chloro-1^4,1^4-difluoro-4^1-(3-hydroxy-3-methylbutyl)-1^5,4^3-dimethyl-4^2,4^3-dihydro-41 H-5-oxa-3,8-diaza-4(6,4)-benzo[d]imidazola-2(2,4)-pyrimidina-1 (1,3)-piperidinacyclooctaphan-4^2-one] is 33-fold lower in DC50: 96.7 nM for the first, 2.9 nM for the second.

First: C[C@@H]1CN2C[C@H](CCCOc3cc(cc4c3n(C)c(=O)c(=O)n4C[C@H]3C[C@H](O)C3)Nc3nc2ncc3Cl)C1(F)F [Compound 18-1, (1^3S,1^5R)-2^5-Chloro-1^4,1^4-difluoro-4^1-(((1r,3S)-3-hydroxycyclobutyl)methyl)-1^5,4^4-dimethyl-4^1,4^2,4^3,4^4-tetrahydro-5-oxa-3-aza-4(7,5)-quinoxalina-2(2,4)-pyrimidina-1 (1,3)-piperidinacyclooctaphane-4^2,4^3-dione]
Second: C[C@H]1CN2C[C@@H](CCCOc3cc(cc4c3n(C)c(=O)c(=O)n4C[C@H]3C[C@H](O)C3)Nc3nc2ncc3Cl)C1(F)F [Compound 19-1, (1^3R, 1^5S)-2^5-Chloro-1^4, 1^4-difluoro-4^1-(((1r, 3R)-3-hydroxycyclobutyl)methyl)-1^5, 4^4-dimethyl-4^1,4^2,4^3,4^4-tetrahydro-5-oxa-3-aza-4(7,5)-quinoxalina-2(2,4)-pyrimidina-1 (1,3)-piperidinacyclooctaphane-4^2,4^3-dione]
The DC50 of the first is lower: 31 nM for the first, over 400 nM for the second.

First: C[C@H]1C[C@@H]2CN(C1)c1ncc(Cl)c(n1)Nc1cc(c3c(c1)n(CCC(C)(C)O)c(=O)n3C)OCCN2 [Compound 16, (1^3R, 1^5S)-2^5-Chloro-4^1-(3-hydroxy-3-methylbutyl)-1^5,4^3-dimethyl-4^2,4^3-dihydro-41 H-5-oxa-3,8-diaza-4(6,4)-benzo[d]imidazola-2(2,4)-pyrimidina-1 (1,3)-piperidinacyclooctaphan-4^2-one]
Second: C[C@@H]1C[C@H]2CN(C1)c1ncc(Cl)c(n1)Nc1cc(c3c(c1)n(CCC(C)(C)O)c(=O)n3C)OCCN2 [Compound 17, (1^3S,1^5R)-2^5-Chloro-4^1-(3-hydroxy-3-methylbutyl)-1^5,4^3-dimethyl-4^2,4^3-dihydro-41 H-5-oxa-3,8-diaza-4(6,4)-benzo[d]imidazola-2(2,4)-pyrimidina-1 (1,3)-piperidinacyclooctaphan-4^2-one]
The DC50 of the first is 14-fold lower: 2.4 nM for the first, 33 nM for the second.

First: C[C@H]1C[C@@H]2CN(C1)c1ncc(Cl)c(n1)Nc1cc(c3c(c1)n(CCC(C)(C)O)c(=O)n3C)OCCO2 [Compound 12, (1^3R, 1^5S)-2^5-chloro-4^1-(3-hydroxy-3-methylbutyl)-1^5,4^3-dimethyl-4^2,4^3-dihydro-4^1H-5,8-dioxa-3-aza-4(6,4)-benzo[d]imidazola-2(2,4)-pyrimidina-1 (1,3)-piperidinacyclooctaphan-4^2-one]
Second: C[C@@H]1C[C@H]2CN(C1)c1ncc(Cl)c(n1)Nc1cc(c3c(c1)n(CCC(C)(C)O)c(=O)n3C)OCCO2 [Compound 13, (1^3S,1^5R)-2^5-chloro-4^1-(3-hydroxy-3-methylbutyl)-1^5,4^3-dimethyl-4^2,4^3-dihydro-4^1H-5,8-dioxa-3-aza-4(6,4)-benzo[d]imidazola-2(2,4)-pyrimidina-1 (1,3)-piperidinacyclooctaphan-4^2-one]
The DC50 of the first is lower: 2 nM for the first, over 400 nM for the second.

Compared with `C[C@@H]1CN2C[C@H](NCCOc3cc(cc4c3n(C)c(=O)n4C[C@H](O)C(C)(C)O)Nc3nc2ncc3Cl)C1(F)F` [Compound 42], `C[C@@H]1CN2C[C@H](NCCOc3cc(cc4c3n(C)c(=O)n4C[C@@H](O)C(C)(C)O)Nc3nc2ncc3Cl)C1(F)F` [Compound 41] is 8.5-fold lower in DC50: 8.5 nM for the first, 1 nM for the second.

First: C[C@H]1CN2C[C@@H](NCCOc3cc(cc4[nH]c(=O)n(C)c34)Nc3nc2ncc3Cl)C1(F)F [Compound 32, (1^3R, 1^5S)-2^5-chloro-1^4,1^4-difluoro-1^5,4^3-dimethyl-4^2,4^3-dihydro-4^1H-5-oxa-3,8-diaza-4(6,4)-benzo[d]imidazola-2(2,4)-pyrimidina-1 (1,3)-piperidinacyclooctaphan-4^2-one]
Second: C[C@@H]1CN2C[C@H](NCCOc3cc(cc4[nH]c(=O)n(C)c34)Nc3nc2ncc3Cl)C1(F)F [Compound 31, (1^3S,1^5R)-2^5-chloro-1^4,1^4-difluoro-1^5,4^3-dimethyl-4^2,4^3-dihydro-4^1H-5-oxa-3,8-diaza-4(6,4)-benzo[d]imidazola-2(2,4)-pyrimidina-1 (1,3)-piperidinacyclooctaphan-4^2-one]
The DC50 of the first is higher: over 400 nM for the first, 7.5 nM for the second.

First: C[C@@H]1CN2C[C@H](NCCOc3cc(cc4c3n(C)c(=O)n4CC[S@](C)(=N)=O)Nc3nc2ncc3Cl)C1(F)F [Compound 43]
Second: C[C@H]1CN2C[C@@H](NCCOc3cc(cc4c3n(C)c(=O)n4CCC(C)(C)O)Nc3nc2ncc3Cl)C1(F)F [Compound 15, (1^3R, 1^5S)-2^5-chloro-1^4,1^4-difluoro-4^1-(3-hydroxy-3-methylbutyl)-1^5,4^3-dimethyl-4^2,4^3-dihydro-41 H-5-oxa-3,8-diaza-4(6,4)-benzo[d]imidazola-2(2,4)-pyrimidina-1 (1,3)-piperidinacyclooctaphan-4^2-one]
The DC50 of the first is 7.3-fold lower: 11.3 nM for the first, 82 nM for the second.

Going from `CNC(=O)COc1cc2cc3cc(c2n(C)c1=O)OCCCC1CN(CC(C)C1(F)F)c1ncc(Cl)c(n1)N3` (stereo not drawn) [Compound 1] to `CNC(=O)COc1cc2cc3cc(c2n(C)c1=O)OCCC[C@@H]1CN(C[C@H](C)C1(F)F)c1ncc(Cl)c(n1)N3` [Compound 5, 2-(((1^3R, 1^5S)-2^5-Chloro-1^4, 1^4-difluoro-1^5,4^1-dimethyl-4^2-oxo-4^1,4^2-dihydro-5-oxa-3-aza-4(6,8)-quinolina-2(2,4)-pyrimidina-1 (1,3)-piperidinacyclooctaphane-4^3-yl)oxy)-N-methylacetamide], the DC50 rises from 1.9 nM to 150 nM (79-fold).

Going from `CNC(=O)COc1cc2cc3ccc2n(c1=O)CCCCO[C@H]1C[C@@H](C)CN(C1)c1ncc(Cl)c(n1)N3` [Compound A, reference compound] to `CNC(=O)COc1cc2cc3cc(c2n(C)c1=O)OCCO[C@H]1C[C@@H](C)CN(C1)c1ncc(Cl)c(n1)N3` [Compound 7, 2-(((1^3S, 1^5R)-2^5-chloro-1^5,4^1-dimethyl-4^2-oxo-4^1,4^2-dihydro-5,8-dioxa-3-aza-4(6,8)-quinolina-2(2,4)-pyrimidina-1 (1,3)-piperidinacyclooctaphane-4^3-yl)oxy)-N-methylacetamide], the DC50 falls from over 400 nM to 121 nM.

Going from `C[C@H]1CN2C[C@@H](CCCOc3cc(cc4c3n(C)c(=O)n4CCC(C)(C)O)Nc3nc2ncc3Cl)C1(F)F` [Compound 11, (1^3R, 1^5S)-2^5-Chloro-1^4, 1^4-difluoro-4^1-(3-hydroxy-3-methylbutyl)-1^5,4^3-dimethyl-4^2,4^3-dihydro-4^1H-5-oxa-3-aza-4(6,4)-benzo[d]imidazola-2(2,4)-pyrimidina-1 (1,3)-piperidinacyclooctaphan-4^2-one] to `C[C@@H]1CN2C[C@H](CCCOc3cc(cc4c3n(C)c(=O)n4CCC(C)(C)O)Nc3nc2ncc3Cl)C1(F)F` [Compound 10, (1^3S,1^5R)-2^5-chloro-1^4,1^4-difluoro-4^1-(3-hydroxy-3-methylbutyl)-1^5,4^3-dimethyl-4^2, 4^3-dihydro-4^1H-5-oxa-3-aza-4(6,4)-benzo[d]imidazola-2(2,4)-pyrimidina-1 (1,3)-piperidinacyclooctaphan-4^2-one], the DC50 falls from over 400 nM to 11 nM.

Going from `C[C@@H]1CN2C[C@H](CCCOc3cc(cc4[nH]c(=O)c(=O)n(C)c34)Nc3nc2ncc3Cl)C1(F)F` [Compound 28, (1^3S,1^3R)-2^5-Chloro-1^4,1^4-difluoro-1^5,4^4-dimethyl-41, 42, 43,44-tetrahydro-5-oxa-3-aza-4(7,5)-quinoxalina-2(2,4)-pyrimidina-1 (1,3)-piperidinacyclooctaphane-4^2,4^3-dione] to `C[C@@H]1CN2C[C@H](CCCOc3cc(cc4c3n(C)c(=O)n4C)Nc3nc2ncc3Cl)C1(F)F` [Compound 29, (1^3S,1^5R)-2^5-chloro-1^4,1^4-difluoro-1^5,4^14^3-trimethyl-4^2,4^3-dihydro-4^1H-5-oxa-3-aza-4(6,4)-benzo[d]imidazola-2(2,4)-pyrimidina-1 (1,3)-piperidinacyclooctaphan-4^2-one], the DC50 rises from 22 nM to 76 nM (3.5-fold).

`C[C@H]1CN2C[C@@H](OCCOc3cc(cc4c3n(C)c(=O)n4CCC(C)(C)O)Nc3nc2ncc3Cl)C1(F)F` [Compound 34, (1^3R, 1^5S)-2^5-Chloro-1^4,1^4-difluoro-4^1-(3-hydroxy-3-methylbutyl)-1^5,4^3-dimethyl-4^2,4^3-dihydro-4 H-5,8-dioxa-3-aza-4(6,4)-benzo[d]imidazola-2(2,4)-pyrimidina-1 (1,3)-piperidinacyclooctaphan-4^2-one] and `C[C@H]1CN2C[C@@H](NCCOc3cc(cc4[nH]c(=O)n(C)c34)Nc3nc2ncc3F)C1(F)F` [Compound 37] cannot be ordered by DC50: over 400 nM for the first, over 400 nM for the second.

`CNC(=O)COc1cc2cc3cc(c2n(C)c1=O)OCCOC1CC(C)CN(C1)c1ncc(Cl)c(n1)N3` (stereo not drawn) [Compound 2] gave a DC50 of 0.34 nM.
